Data reported in ChEMBL document CHEMBL3217443, “The Discovery of Novel 10,11-Dihydro-5H-dibenz[b,f]azepine SIRT2 Inhibitors” (Medchemcomm, 2012).
Each block holds one compound with its values, some of them ahead of it. Activity calls are given as the source filed them. The rule behind the calls is not given here.

Legend:
[1] = target: T1, NAD-dependent protein deacetylase sirtuin-1 (Homo sapiens) (UniProt Q96EB6); experiment: Inhibition of recombinant human N-tagged GST-SIRT1 fusion protein using fluorescent ZMAL as substrate at 50 uM after 4 hrs by homogeneous fluorescent deacetylase assay
T1 sequence (whole entry): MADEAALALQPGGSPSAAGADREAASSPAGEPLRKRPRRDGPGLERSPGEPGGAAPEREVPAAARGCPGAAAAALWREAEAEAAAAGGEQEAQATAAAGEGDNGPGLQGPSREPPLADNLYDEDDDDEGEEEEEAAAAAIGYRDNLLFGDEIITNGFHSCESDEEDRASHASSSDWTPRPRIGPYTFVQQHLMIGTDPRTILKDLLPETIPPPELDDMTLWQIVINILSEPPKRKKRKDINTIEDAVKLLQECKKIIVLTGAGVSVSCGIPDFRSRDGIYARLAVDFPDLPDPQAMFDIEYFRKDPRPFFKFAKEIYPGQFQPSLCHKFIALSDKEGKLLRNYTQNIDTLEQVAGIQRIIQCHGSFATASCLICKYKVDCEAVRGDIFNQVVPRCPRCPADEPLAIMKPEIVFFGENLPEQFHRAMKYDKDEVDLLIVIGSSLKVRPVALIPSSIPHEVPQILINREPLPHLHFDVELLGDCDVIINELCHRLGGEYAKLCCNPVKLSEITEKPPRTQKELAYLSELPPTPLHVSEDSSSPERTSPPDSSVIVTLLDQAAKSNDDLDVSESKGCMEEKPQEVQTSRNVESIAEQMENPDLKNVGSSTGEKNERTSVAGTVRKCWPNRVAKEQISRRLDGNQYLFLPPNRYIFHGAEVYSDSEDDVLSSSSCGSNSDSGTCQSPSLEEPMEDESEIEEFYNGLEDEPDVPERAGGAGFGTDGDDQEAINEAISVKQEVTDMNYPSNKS

[2] = target: T2, NAD-dependent protein deacetylase sirtuin-2 (Homo sapiens) (UniProt Q8IXJ6); experiment: Inhibition of recombinant human full length SIRT2 using fluorescent ZMAL as substrate at 50 uM after 4 hrs by homogeneous fluorescent deacetylase assay
T2 sequence (whole entry): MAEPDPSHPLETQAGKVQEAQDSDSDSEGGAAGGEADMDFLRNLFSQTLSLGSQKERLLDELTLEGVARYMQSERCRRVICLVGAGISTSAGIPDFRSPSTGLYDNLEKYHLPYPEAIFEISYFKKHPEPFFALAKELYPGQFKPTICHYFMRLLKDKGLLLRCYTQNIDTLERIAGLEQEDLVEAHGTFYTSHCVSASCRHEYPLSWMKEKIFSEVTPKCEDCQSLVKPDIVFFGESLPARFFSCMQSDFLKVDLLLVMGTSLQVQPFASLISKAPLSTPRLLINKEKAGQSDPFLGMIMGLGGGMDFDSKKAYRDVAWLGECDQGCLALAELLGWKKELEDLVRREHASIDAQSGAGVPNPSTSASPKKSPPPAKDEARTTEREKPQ

[3] = target: T1, NAD-dependent protein deacetylase sirtuin-1 (Homo sapiens); experiment: Inhibition of SIRT1 in human MCF7 cells assessed as increase in acetylation of H3-K9 up to 50 uM after 24 hrs by Western blot analysis; type: cell-based
[4] = target: T2, NAD-dependent protein deacetylase sirtuin-2 (Homo sapiens); experiment: Inhibition of SIRT2 in human MCF7 cells assessed as increase in hyperacetylation of alpha-tubulin up to 50 uM after 24 hrs by Western blot analysis; type: cell-based
[5] = target: T1, NAD-dependent protein deacetylase sirtuin-1 (Homo sapiens); experiment: Inhibition of SIRT1 in human MCF7 cells assessed as increase in acetylation of p53 at lys 382 at 50 uM after 24 hrs by Western blot analysis; type: cell-based
MCF7 [6] = experiment: Antiproliferative activity against human MCF7 cells at 30 uM after 24 to 72 hrs; type: functional
MCF7 [7] = experiment: Cell cycle arrest in human MCF7 cells assessed as accumulation at sub-G1 phase at 50 uM after 24 hrs by flow cytometry (reference value: 0.3 %); type: functional
MCF7 [8] = experiment: Cell cycle arrest in human MCF7 cells assessed as accumulation at G1 phase at 50 uM after 24 hrs by flow cytometry (reference value: 43.5 %); type: functional
MCF7 [9] = experiment: Cell cycle arrest in human MCF7 cells assessed as accumulation at S phase at 50 uM after 24 hrs by flow cytometry (reference value: 30.8 %); type: functional
MCF7 [10] = experiment: Cell cycle arrest in human MCF7 cells assessed as accumulation at G2-M phase at 50 uM after 24 hrs by flow cytometry (reference value: 22.6 %); type: functional
[11] = target: T3, NAD-dependent protein deacetylase sirtuin-2 (Homo sapiens, UniProt Q8IXJ6); experiment: Inhibition of recombinant human full length SIRT2 using fluorescent ZMAL as substrate after 4 hrs by homogeneous fluorescent deacetylase assay
T3 sequence (Q8IXJ6 whole entry): T2 sequence (whole entry)

[12] = target: T1, NAD-dependent protein deacetylase sirtuin-1 (Homo sapiens); experiment: Inhibition of recombinant human N-tagged GST-SIRT1 fusion protein using fluorescent ZMAL as substrate at 100 uM after 4 hrs by homogeneous fluorescent deacetylase assay
[13] = target: T1, NAD-dependent protein deacetylase sirtuin-1 (Homo sapiens); experiment: Inhibition of recombinant human N-tagged GST-SIRT1 fusion protein using fluorescent ZMAL as substrate at 500 uM after 4 hrs by homogeneous fluorescent deacetylase assay
[14] = target: T2, NAD-dependent protein deacetylase sirtuin-2 (Homo sapiens); experiment: Inhibition of SIRT2 in human MCF7 cells assessed as decrease in phosphorylation of pRB at Ser807/Ser811 at 50 uM after 24 hrs by Western blot analysis; type: cell-based
Homo sapiens = species on record: Homo sapiens; experiment: Selectivity ratio of IC50 for recombinant human N-tagged GST-SIRT1 fusion protein to IC50 for recombinant human full length SIRT2
[15] = target: T4, NAD-dependent protein deacetylase sirtuin-1 (Homo sapiens, UniProt Q96EB6)
T4 sequence (Q96EB6 whole entry): T1 sequence (whole entry)
Description: Inhibition of recombinant human N-tagged GST-SIRT1 fusion protein using fluorescent ZMAL as substrate after 4 hrs by homogeneous fluorescent deacetylase assay

inhibition [1]: < 25%
inhibition [2]: < 25%
SMILES: O=[N+]([O-])c1ccc2c(c1)Nc1ccccc1CC2

inhibition [1]: < 25%
inhibition [2]: < 25%
SMILES: NC(=O)c1ccc2c(c1)CCc1cc(Cl)ccc1N2

inhibition [1]: < 25%
inhibition [2]: < 25%
SMILES: N#Cc1ccc2c(c1)CCc1cc(C#N)ccc1N2

inhibition [1]: < 25%
inhibition [2]: < 25%
SMILES: NC(=O)c1cccc2c1Nc1ccccc1CC2

inhibition [1]: < 25%
inhibition [2]: < 25%
SMILES: OCc1ccc2c(c1)CCc1cccc(CO)c1N2

inhibition [3]: inactive
inhibition [4]: inactive
inhibition [5]: Active
SMILES: CC(NC(=O)c1ccccc1/N=C/c1c(O)ccc2ccccc12)c1ccccc1 (stereo not drawn) [SIRTINOL]
Activity (MCF7 [6]): Active
Activity (MCF7 [7]): 0.7%
Activity (MCF7 [8]): 71.5%
Activity (MCF7 [9]): 9.7%
Activity (MCF7 [10]): 18%

IC50 [11]: 100 µM
inhibition [1]: < 25%
SMILES: CC(C)(C)NC(=O)c1ccc2c(c1)CCc1ccccc1N2

IC50 [11]: 77.5 µM
inhibition [12]: 23%
SMILES: CN1c2ccc(C(N)=O)cc2CCc2cc([N+](=O)[O-])ccc21

SMILES: NC(=O)C1CCCc2c1[nH]c1ccc(Cl)cc21 (stereo not drawn)
Activity (MCF7 [6]): 50%
Activity (MCF7 [7]): 1.2%
Activity (MCF7 [8]): 73.8%
Activity (MCF7 [9]): 10.3%
Activity (MCF7 [10]): 15.7%

inhibition [1]: < 25%
inhibition [2]: < 25%
SMILES: NC(=O)c1ccc2c(c1)CCc1cc(C(N)=O)ccc1N2

inhibition [1]: < 25%
inhibition [2]: < 25%
SMILES: NC(=O)c1ccc2c(c1)CCc1cc(N)ccc1N2

IC50 [11]: 17.6 µM
inhibition [13]: 11%
inhibition [12]: 1%
inhibition [3]: inactive
inhibition [4]: Active
inhibition [14]: Active
inhibition [5]: inactive
Ratio IC50 (Homo sapiens): > 30
SMILES: NC(=O)c1ccc2c(c1)CCc1cc([N+](=O)[O-])ccc1N2
Activity (MCF7 [6]): Active
Activity (MCF7 [7]): 0.9%
Activity (MCF7 [8]): 42.2%
Activity (MCF7 [9]): 18%
Activity (MCF7 [10]): 38.9%

inhibition [1]: < 25%
inhibition [2]: < 25%
SMILES: N#Cc1ccc2c(c1)CCc1cc(C(N)=O)ccc1N2

inhibition [1]: < 25%
inhibition [2]: < 25%
SMILES: N#Cc1ccc2c(c1)CCc1ccccc1N2

inhibition [1]: < 25%
inhibition [2]: < 25%
SMILES: NC(=O)c1ccc2c(c1)CCc1cccc([N+](=O)[O-])c1N2

inhibition [1]: < 25%
inhibition [2]: < 25%
SMILES: OCc1ccc2c(c1)CCc1cc(CO)ccc1N2

SMILES: CC(C(=O)Nc1cccc(/N=C/c2c(O)ccc3ccccc23)c1)c1ccccc1 (stereo not drawn) [SALERMIDE]
IC50 [11]: 45 µM
inhibition [3]: inactive
inhibition [4]: Active
inhibition [5]: Active
Activity (MCF7 [6]): Active
Activity (MCF7 [7]): 1.1%
Activity (MCF7 [8]): 56.1%
Activity (MCF7 [9]): 16.4%
Activity (MCF7 [10]): 26.4%
IC50 [15]: 76 µM

inhibition [1]: < 25%
inhibition [2]: < 25%
SMILES: O=[N+]([O-])c1ccc2c(c1)CCc1ccccc1N2

inhibition [1]: < 25%
inhibition [2]: < 25%
SMILES: NC(=O)N1c2ccccc2CCc2ccccc21

inhibition [1]: < 25%
inhibition [2]: < 25%
SMILES: NC(=O)c1ccc2c(c1)CCc1cccc(CO)c1N2

inhibition [1]: < 25%
inhibition [2]: < 25%
SMILES: NC(=O)c1ccc2c(c1)CCc1ccccc1N2

inhibition [1]: < 25%
inhibition [2]: < 25%
SMILES: c1ccc2c(c1)CCc1ccccc1N2

inhibition [1]: < 25%
inhibition [3]: inactive
inhibition [5]: Active
SMILES: O=C(Nc1cccc(Br)c1)c1cccc(S(=O)(=O)N2CCCCCC2)c1
Activity (MCF7 [7]): 0.4%
Activity (MCF7 [8]): 54.3%
Activity (MCF7 [9]): 20%
Activity (MCF7 [10]): 25.3%

IC50 [11]: 29.8 µM
inhibition [12]: 12%
SMILES: CC(C)(C)NS(=O)(=O)c1ccc2c(c1)Nc1ccccc1CC2

inhibition [1]: < 25%
inhibition [2]: < 25%
SMILES: N#Cc1ccc2c(c1)CCc1cc([N+](=O)[O-])ccc1N2
